The record followed here is US8889704B2 (Array BioPharma Inc., priority 2011, dated 2014).

Counter-ions that a name gives are not always drawn.

What all share (assay type): biochemical
The target of one assay is recombinant rat PIM-3 (Rattus norvegicus, UniProt O70444). The experiment in a line: PIM-3 Assay (as Example A). To be noted: averaged IC50; 30 μM ATP, 3.75 μM PIM2tide, 0.5 nM PIM-3. As to the method:
(§1) The assay for the determination of PIM-1 activity is based on the incorporation of [^33P]PO4 from [γ-^33P]ATP into PIM2tide substrate and capture of the radiolabeled peptide onto a Whatman P81 (phosphocellulose) filter plate. The amount of radiolabeled product is then measured by liquid scintillation counting. The final buffer conditions were as follows: 20 mM K^+MOPS, pH 7.4, 10 mM MgCl2, 0.005% Tween-20, 1 mM DTT. Assay mixtures contained 35 μM [γ-^33P]ATP (20 μCi/mL), 7.5 μM PIM2tide and 0.25 nM PIM-1 in a total volume of 50 μL. Incubations were carried out for 60 min at 22° C. and quenched with 75 μL of 200 mM H3PO4, filtered through a Whatman P81 plate and washed (1×200 μL and 5×100 μL) with 200 mM H3PO4. Fifty μL of liquid scintillation cocktail were then added per well, and the plate was counted for 30 s/well using a TopCount NXT.
(§2) Compounds were prepared at 50× the final concentration in DMSO by conducting 3-fold serial dilutions from a 500-μM intermediate dilution to give a 10-point dosing curve having a high dose of 10 μM. One-μL aliquots of these were then transferred to the assay mixtures above to give a final concentration of DMSO of 2%. A standard or reference compound was typically included on each assay plate to validate that plate. For each plate, percent of control (POC) values were calculated for each well. IC50 values were estimated from the POC values using a standard 4-parameter logistic model. The IC50 is defined as the concentration of inhibitor at which the POC equals 50 for the fitted curve.
Assay was performed as described in Example A, using 30 μM [γ-^33P]ATP (20 μCi/mL), 3.75 μM PIM2tide and 0.5 nM recombinant rat PIM-3 in place of PIM-1.

Assay [1] addresses T1, GST-tagged recombinant full-length human Pim-2 (Homo sapiens, UniProt Q9P1W9).
T1 construct: GST-tagged recombinant full-length human Pim-2; GST
Kind of assay: PIM-2 Assay (as Example A). To be noted: averaged IC50; 4 μM ATP, 1.0 μM PIM2tide, 1.5 nM Pim-2. As to the method:
as §1, §2
Assay was performed as described in Example A, using 4 μM [γ-^33P]ATP (20 μCi/mL), 1.0 μM PIM2tide and 1.5 nM GST-tagged recombinant full-length human Pim-2 in place of PIM-1.

In another assay the target is PIM-1 (Homo sapiens, UniProt P11309). The experiment in a line: Enzyme PIM-1 Assay ([33P]ATP incorporation into PIM2tide, filter plate). To be noted: averaged IC50; 35 μM ATP, 7.5 μM PIM2tide, 0.25 nM PIM-1, 60 min at 22° C. Here is the method:
as §1, §2

Sequence of PIM-1 (P11309 whole entry, species assumed): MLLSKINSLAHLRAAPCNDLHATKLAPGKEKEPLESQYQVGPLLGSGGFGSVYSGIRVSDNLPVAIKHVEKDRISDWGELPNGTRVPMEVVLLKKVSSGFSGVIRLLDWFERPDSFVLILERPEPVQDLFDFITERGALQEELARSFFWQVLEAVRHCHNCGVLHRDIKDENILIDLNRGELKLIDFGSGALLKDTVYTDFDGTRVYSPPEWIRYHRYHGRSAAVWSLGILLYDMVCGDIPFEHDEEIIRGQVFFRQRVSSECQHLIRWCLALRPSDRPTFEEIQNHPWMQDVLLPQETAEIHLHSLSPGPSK
T1 sequence (Q9P1W9 whole entry): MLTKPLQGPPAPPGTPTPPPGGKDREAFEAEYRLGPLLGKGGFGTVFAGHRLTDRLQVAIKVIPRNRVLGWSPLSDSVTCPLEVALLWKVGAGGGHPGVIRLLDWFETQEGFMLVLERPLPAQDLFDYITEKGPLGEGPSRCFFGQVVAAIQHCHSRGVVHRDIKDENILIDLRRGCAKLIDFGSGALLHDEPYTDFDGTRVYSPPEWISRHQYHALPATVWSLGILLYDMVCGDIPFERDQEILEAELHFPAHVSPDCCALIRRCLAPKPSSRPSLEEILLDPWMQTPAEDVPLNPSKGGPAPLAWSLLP

Broadly, the IC50 is the point on the concentration scale where inhibition reaches its midpoint. As to `N[C@H]1CCN([C@H](c2ccc3nnc(-c4ccc5ccc(O[C@H]6CCC[C@@H]6O)cc5n4)n3c2)C(F)(F)F)C1` (single isomer, unassigned; diastereomer 1) [Example 319, di-hydrochloride], the IC50 worked out at 0.3 nM at recombinant rat PIM-3, 112 nM in assay [1] and 0.11 nM on PIM-1.

As to `COc1cccc2ccc(-c3nnc4ccc([C@@H](N5CCC(C)(O)C5)C(F)(F)F)cn34)nc12` (single isomer, unassigned; diastereomer 2) [Example 194, hydrochloride], the IC50 at recombinant rat PIM-3 is greater than 100 nM; in assay [1], greater than 1000 nM; against PIM-1, greater than 100 nM.

As for `CC1(O)CCN([C@H](c2ccc3nnc(-c4ccc5cccc(C(C)(C)C)c5n4)n3c2)C(F)(F)F)C1` (single isomer, unassigned; diastereomer 2) [Example 196, hydrochloride], the IC50 was greater than 100 nM on recombinant rat PIM-3, greater than 1000 nM in assay [1] and 42.3 nM on PIM-1.

Turning to `Cn1cc(-c2ccc3ccc(-c4nnc5ccc([C@H](N6CCC(C)(O)C6)C(F)(F)F)cn45)nc3c2)cn1` (single isomer, unassigned; diastereomer 2) [Example 201, hydrochloride], the IC50 on recombinant rat PIM-3 was 42 nM; in assay [1] it was greater than 1000 nM; against PIM-1 it was 43.5 nM.

Take `CC(C)Oc1cc(F)cc2ccc(-c3nnc4ccc([C@H](N5CCC(C)(O)C5)C(F)(F)F)cn34)nc12` (single isomer, unassigned; diastereomer 2) [Example 203, hydrochloride]: the IC50 on recombinant rat PIM-3 was 37 nM; in assay [1] it was greater than 1000 nM; against PIM-1 it was 19.8 nM.

For the molecule `CC(C)Oc1cccc2ccc(-c3nnc4ccc([C@H](N5CCC(C)(O)C5)C(F)(F)F)cn34)nc12` (single isomer, unassigned; diastereomer 2) [Example 207], the figures for the IC50 (at recombinant rat PIM-3; in assay [1]; at PIM-1) were 40 nM, greater than 1000 nM and 58 nM, respectively.

Turning to `CCC1(N)CCN([C@@H](c2ccc3nnc(-c4ccc5cccc(OC)c5n4)n3c2)C(F)(F)F)C1` (single isomer, unassigned; diastereomer 2) [Example 244, dihydrochloride], the values for the IC50 (at recombinant rat PIM-3; in assay [1]; on PIM-1) were 1 nM, 93 nM and 1.11 nM, respectively.

With `CCOc1cc2nc(-c3nnc4ccc([C@H](N5CCC(N)(CC)C5)C(F)(F)F)cn34)ccc2cc1F` (single isomer, unassigned; diastereomer 2) [Example 245, dihydrochloride], the IC50 on recombinant rat PIM-3 is 0.5 nM; in assay [1] it was 125 nM; on PIM-1 it was 1.04 nM.

With `CCC1(N)CCN([C@H](c2ccc3nnc(-c4ccc5cccc(OC)c5n4)n3c2)C(F)(F)F)C1` (single isomer, unassigned; diastereomer 2) [Example 252, dihydrochloride], the IC50 at recombinant rat PIM-3 was 24 nM; in assay [1], greater than 1000 nM; against PIM-1 it was 4.05 nM.

For `CCOc1cc2nc(-c3nnc4ccc([C@@H](N5CCC(N)(CC)C5)C(F)(F)F)cn34)ccc2cc1F` (single isomer, unassigned; diastereomer 2) [Example 253, dihydrochloride], the figures for the IC50 (on recombinant rat PIM-3; in assay [1]; at PIM-1) were 2.2 nM, 776 nM and 0.78 nM, respectively.

`N[C@H]1CCN([C@H](c2ccc3nnc(-c4ccc5ccc(O[C@@H]6CCC[C@H]6O)cc5n4)n3c2)C(F)(F)F)C1` (single isomer, unassigned; diastereomer 2) [Example 320, di-hydrochloride]: the IC50 was found to be 0.3 nM on recombinant rat PIM-3, 111 nM in assay [1] and 0.14 nM against PIM-1.

Regarding `N[C@H]1CCN(C(c2ccc3nnc(-c4ccc5cc(F)c(OCCOC(=O)c6ccccc6)cc5n4)n3c2)C(F)(F)F)C1` (stereo in doubt) [Example 313, 2-((2-(6-((R)-1-((S)-3-aminopyrrolidin-1-yl)-2,2,2-trifluoroethyl)-[1,2,4]triazolo[4,3-a]pyridin-3-yl)-6-fluoroquinolin-7-yl)oxy)ethyl benzoate], the IC50 at recombinant rat PIM-3 stood at 6.1 nM; in assay [1], 5700 nM; on PIM-1, 1.15 nM.

As for `COCCOc1ccc2cc(F)c(-c3nnc4ccc(C(N5CC[C@](C)(N)C5)C(F)(F)F)cn34)nc2c1` (stereo in doubt) [Example 327, (S)-3-methyl-1-((R)-2,2,2-trifluoro-1-(3-(3-fluoro-7-(2-methoxyethoxy)quinolin-2-yl)-[1,2,4]triazolo[4,3-a]pyridin-6-yl)ethyl)pyrrolidin-3-amine], the figures for the IC50 (on recombinant rat PIM-3; in assay [1]; on PIM-1) were 1.34 nM, 340 nM and 0.42 nM, respectively.

For `COc1cccc2ccc(-c3nnc4ccc(C(N5CC[C@H](N)C5)C(F)(F)F)cn34)nc12` (stereo partly drawn) [Example 1, (3S)-1-(2,2,2-trifluoro-1-(3-(8-methoxyquinolin-2-yl)-[1,2,4]triazolo[4,3-a]pyridin-6-yl)ethyl)pyrrolidin-3-amine dihydrochloride], the IC50 worked out at 1.7 nM at recombinant rat PIM-3, 161 nM in assay [1] and 0.43 nM against PIM-1.

On to `N[C@H]1CCN(C(c2ccc3nnc(-c4ccc5ccc(Br)cc5n4)n3c2)C(F)(F)F)C1` (stereo partly drawn) [Example 2, (3S)-1-(1-(3-(7-bromoquinolin-2-yl)-[1,2,4]triazolo[4,3-a]pyridin-6-yl)-2,2,2-trifluoroethyl)pyrrolidin-3-amine dihydrochloride], for which the values for the IC50 (on recombinant rat PIM-3; in assay [1]; against PIM-1) were 1 nM, 74 nM and 0.19 nM, respectively.

Turning to `N[C@H]1CCN(C(c2ccc3nnc(-c4ccc5ccc(C6CC6)cc5n4)n3c2)C(F)(F)F)C1` (stereo partly drawn) [Example 3, (3S)-1-(1-(3-(7-cyclopropylquinolin-2-yl)-[1,2,4]triazolo[4,3-a]pyridin-6-yl)-2,2,2-trifluoroethyl)pyrrolidin-3-amine dihydrochloride], the IC50 stood at 0.3 nM on recombinant rat PIM-3, 53 nM in assay [1] and 0.13 nM against PIM-1.

Consider `Cn1cc(-c2ccc3ccc(-c4nnc5ccc(C(N6CC[C@H](N)C6)C(F)(F)F)cn45)nc3c2)cn1` (stereo partly drawn) [Example 4, (3S)-1-(2,2,2-trifluoro-1-(3-(7-(1-methyl-1H-pyrazol-4-yl)quinolin-2-yl)-[1,2,4]triazolo[4,3-a]pyridin-6-yl)ethyl)pyrrolidin-3-amine trihydrochloride], for which the IC50 was 12 nM at recombinant rat PIM-3, 451 nM in assay [1] and 0.84 nM against PIM-1.

For the molecule `N[C@H]1CCN(C(c2ccc3nnc(-c4ccc5cccc(OCC6CC6)c5n4)n3c2)C(F)(F)F)C1` (stereo partly drawn) [Example 5, (3S)-1-(1-(3-(8-(cyclopropylmethoxy)quinolin-2-yl)-[1,2,4]triazolo[4,3-a]pyridin-6-yl)-2,2,2-trifluoroethyl)pyrrolidin-3-amine dihydrochloride], the IC50 at recombinant rat PIM-3 turned out to be 2.6 nM; in assay [1], 131 nM; on PIM-1 it was 0.25 nM.

As for `COc1cccc2ccc(-c3nnc4ccc(C(N5CCCC5)C(F)(F)F)cn34)nc12` (stereo not drawn) [Example 6, 8-methoxy-2-(6-(2,2,2-trifluoro-1-(pyrrolidin-1-yl)ethyl)-[1,2,4]triazolo[4,3-a]pyridin-3-yl)quinoline], the IC50 on recombinant rat PIM-3 is greater than 100 nM; in assay [1], greater than 1000 nM; on PIM-1, 11.1 nM.

Regarding `COc1cccc2ccc(-c3nnc4ccc(C(N5CC[C@H](O)C5)C(F)(F)F)cn34)nc12` (stereo partly drawn) [Example 7, (3S)-1-(2,2,2-trifluoro-1-(3-(8-methoxyquinolin-2-yl)-[1,2,4]triazolo[4,3-a]pyridin-6-yl)ethyl)pyrrolidin-3-ol], the IC50 at recombinant rat PIM-3 is 45 nM; in assay [1] it was greater than 1000 nM; against PIM-1, 3.94 nM.

As for `COc1cccc2ccc(-c3nnc4ccc([C@H](N5CC[C@H](N)C5)C(F)(F)F)cn34)nc12` [Example 8, (S)-1-((S)-2,2,2-trifluoro-1-(3-(8-methoxyquinolin-2-yl)-[1,2,4]triazolo[4,3-a]pyridin-6-yl)ethyl)pyrrolidin-3-amine dihydrochloride], the IC50 is 2.5 nM on recombinant rat PIM-3, 151 nM in assay [1] and 1.31 nM on PIM-1.

Turning to `COc1cccc2ccc(-c3nnc4ccc([C@@H](N5CC[C@H](N)C5)C(F)(F)F)cn34)nc12` [Example 9, (S)-1-((R)-2,2,2-trifluoro-1-(3-(8-methoxyquinolin-2-yl)-[1,2,4]triazolo[4,3-a]pyridin-6-yl)ethyl)pyrrolidin-3-amine dihydrochloride], the figures for the IC50 (at recombinant rat PIM-3; in assay [1]; against PIM-1) were 4.2 nM, 403 nM and 0.68 nM, respectively.
